Data: patent US7183383B2, “Uses of collagen IV” (The University of Arkansas for Medical Sciences, priority 2002, dated 2007)

Assays:
[1] = system: collagen IV deposition in renal proximal tubular cells; assay: Newly deposited collagen IV (immunoprecipitation, autoradiography, densitometry); assay type: cell-based, rabbit
Description: Immunoprecipitation of newly synthesized and deposited collagen IV was performed using the method of Niki et al., with some modifications (34). On days 1, 4, and 6 after sublethal S-(1,2-dichlorovinyl)-L-cysteine injury, renal proximal tubular cells were metabolically labeled for 24 hours with 25 μCi/ml of [^35S]-L-methionine. Cell monolayers were washed with PBS, solubilized for 30 minutes in lysis buffer (20 mM Tris-HCl (pH 8.8), 2 mM EDTA, 0.2 mM PMSF, 10 mM N-ethylmaleimide, 1% Triton X-100, 1% sodium deoxycholic acid, 150 mM NaCl, and 1 mM EGTA) containing protease inhibitors (25 μg/ml pepstatin A, 12.5 μg/ml leupeptin, 12.5 μg/ml aprotinin), and centrifuged at 15,000×g for 10 minutes at 4° C. The resulting supernatants (soluble fraction, cell-associated collagen) were transferred to fresh tubes, snap frozen in liquid N2, and stored at −80° C. Pelleted material (insoluble fraction, ECM-associated collagen) was resuspended in pellet solubilization buffer (20 mM Tris-HCl (pH 8.8), 2 mM EDTA, 0.2 mM PMSF, 10 mM N-ethylmaleimide, 1% sodium dodecyl sulfate, and 10 mM dithiothreitol), sonicated, boiled for 5 minutes, and incubated in the presence of iodoacetamide (25 mM) for 30 minutes at 37° C. with shaking. Samples were centrifuged at 15,000×g for 10 minutes at 4° C. Supernatants were then transferred to fresh microcentrifuge tubes, snap frozen in liquid N2, and stored at −80° C. Protein concentration in cell-associated and ECM-associated fractions was determined using a Coomassie protein microassay (Pierce, Rockford, Ill.) with BSA as the standard. Sample aliquots equaling 0.5 mg of total protein were diluted 3-fold in immunoprecipitation buffer (20 mM Tris-HCl (pH 8.8), 2 mM EDTA, 0.2 mM PMSF, 10 mM N-ethylmaleimide) and precleared with 20 μl (50% slurry) of Protein G-agarose beads for 2 hours. Samples were then incubated overnight with 0.05 mg of an anti-collagen IV monoclonal antibody (clone M3F7) at 4° C. with vigorous shaking. Samples were incubated for 2 hours at 4° C. with shaking in the presence of goat anti-mouse IgG at a concentration in two-fold excess of that of the primary antibody. Immune complexes were precipitated for 2 hours at 4° C. with shaking using 40 μl (50% slurry) of Protein G-agarose beads.
To collect the collagen IV immune complexes, samples were centrifuged at 15,000×g for 1 minute at 4° C. […]
(§1) Radiolabeled collagen IV was separated by SDS-PAGE and visualized by autoradiography (22). […] After film development, densitometry of the resulting 206 kDa bands was calculated using NIH Image software.

[2] = system: prolyl hydroxylase activity in renal proximal tubular cells; assay: Proline hydroxylation in newly synthesized collagen IV (dual labeling); assay type: cell-based, rabbit; settings: day 1 after DCVC
Source text: Proline hydroxylation in collagen molecules occurs at the 4-trans position. Therefore, the extent of proline hydroxylation can be estimated by the loss of hydrogen from the 4-trans position of proline in the hydroxylation reaction. A previously described dual-labeling technique for the determination of proline hydroxylation was modified using [^14C]-L-proline and 4-[^3H]-L-proline incorporation into collagen IV and measuring the ratio of [^3H]:[^14C] in collagen IV molecules (5). A greater extent of proline hydroxylation at the 4-trans position of proline will result in a decrease in the ratio of [^3H]:[^14C] in newly synthesized collagen molecules due to the loss of [^3H]. Renal proximal tubular cells were dual-labeled for 24 hours with [^14C]-L-proline ([…]) and 4-[^3H]-L-proline (62.5 μCi/ml) immediately after S-(1,2-dichlorovinyl)-L-cysteine exposure. Cell-associated and deposited proteins were harvested, and collagen IV was immunoprecipitated as described above. Immunoprecipitated collagen IV was visualized by SDS-PAGE as described above, the 206 kDa bands in the destained gels were excised, and the protein was extracted with 90% hyamine hydroxide overnight at 37° C. [^14C]-Proline and 4-[^3H]-proline in collagen IV was determined using liquid scintillation spectrometry, and the extent of proline hydroxylation was calculated as the ratio of [^3H]:[^14C].

[3] = system: collagen IV synthesis in renal proximal tubular cells; assay: Newly synthesized collagen IV (immunoprecipitation, autoradiography, densitometry); assay type: cell-based, rabbit
Description: Immunoprecipitation of newly synthesized and deposited collagen IV was performed using the method of Niki et al., with some modifications (34). On days 1, 4, and 6 after sublethal S-(1,2-dichlorovinyl)-L-cysteine injury, renal proximal tubular cells were metabolically labeled for 24 hours with 25 μCi/ml of [^35S]-L-methionine. Cell monolayers were washed with PBS, solubilized for 30 minutes in lysis buffer (20 mM Tris-HCl (pH 8.8), 2 mM EDTA, 0.2 mM PMSF, 10 mM N-ethylmaleimide, 1% Triton X-100, 1% sodium deoxycholic acid, 150 mM NaCl, and 1 mM EGTA) containing protease inhibitors (25 μg/ml pepstatin A, 12.5 μg/ml leupeptin, 12.5 μg/ml aprotinin), and centrifuged at 15,000×g for 10 minutes at 4° C. The resulting supernatants (soluble fraction, cell-associated collagen) were transferred to fresh tubes, snap frozen in liquid N2, and stored at −80° C. […] Protein concentration in cell-associated and ECM-associated fractions was determined using a Coomassie protein microassay (Pierce, Rockford, Ill.) with BSA as the standard. […]
as §1

[4] = 37° C.; cited from earlier work

SMILES	decrease in collagen IV deposition compared to controls ([1]; day 4 after DCVC, physiological AscP, not statistically significant)	collagen IV deposition ([1]; one day after DCVC, 50 μM AscP)	ratio of 4-[^3H]-L-proline:[^14C]-L-proline greater than controls ([2]; 50 μM AscP, higher ratio = decreased proline hydroxylation)	increase in collagen IV synthesis ([3]; one day after DCVC, both 50 μM and 500 μM AscP) [fold]	collagen IV deposition in DCVC-injured RPTC ([1]; 500 μM AscP, throughout the experiment)	collagen IV deposition by uninjured RPTC, pharmacological vs physiological AscP ([1]; uninjured RPTC, not statistically significant)	ratio of 4-[^3H]-L-proline:[^14C]-L-proline greater than controls ([2]; 500 μM AscP)	stable in culture media [4] [days]	collagen IV synthesis, 500 μM compared to 50 μM AscP ([3]; day 1, uninjured RPTC)
N[C@@H](CSC(Cl)=CCl)C(=O)O [S-(1,2-dichlorovinyl)-L-cysteine]	approximately 50%	significantly inhibited	approximately 80%	1.8	–	–	–	–	–
O=C1O[C@H]([C@@H](O)CO)C(O)=C1OP(=O)(O)O [L-ascorbic acid-2-phosphate, L-Ascorbic acid-2-phosphate]	–	–	–	–	maintained collagen IV deposition at levels equal to that of controls	numerical increase	approximately 45%	≥ 7	decreased
